{
  "source": "patent US7402589B2",
  "about": "“Tri-substituted ureas as cytokine inhibitors” (The Procter & Gamble Company, priority 2004, dated 2008)",
  "data": [
    {"test_system": "TNF-α", "assay": "TNF-α inhibition in lipopolysaccharide (LPS) stimulated human monocytic cells (THP-1)", "format": "cell-based", "details": "LPS (1 μg/mL) stimulated THP-1 cells, 4 hours, human TNF-α by ELISA", "from_the_text": "In addition, Tumor Necrosis Factor, TNF-α, inhibition can be measured by utilizing lipopolysaccharide (LPS) stimulated human monocytic cells (THP-1) as described in: • i) K. M. Mohler et al., “Protection Against a Lethal Dose of Endotoxin by an Inhibitor of Tumour Necrosis Factor Processing”, Nature, 370, pp 218-220 (1994). • ii) U.S. Pat. No. 6,297,381 B1 Cirillo et al., issued Oct. 2, 2001, incorporated by reference and reproduced herein below in relevant portion thereof.\nThe inhibition of cytokine production can be observed by measuring inhibition of TNF-α in lipopolysaccharide stimulated THP cells. All cells and reagents are diluted in RPMI 1640 with phenol red and L-glutamine, supplemented with additional L-glutamine (total: 4 mM), penicillin and streptomycin (50 units/mL each) and fetal bovine serum (FBS 3%) (GIBCO, all conc. Final). Assay is performed under sterile conditions, only test compound preparation is non-sterile. Initial stock solutions are made in DMSO followed by dilution into RPMI 1640 2-fold higher than the desired final assay concentration. Confluent THP.1 cells (2×10^7 cells/mL, final conc.; American Type Culture Company, Rockville, Md.) are added to 96 well polypropylene round bottomed culture plates (Costar 3790; sterile) containing 125 μL test compound (2-fold concentrated) or DMSO vehicle (controls, blanks). DMSO concentration should not exceed 0.2% final. Cell mixture is allowed to preincubate for 15 minutes at 37° C., 5% CO2 prior to stimulation with lipopolysaccharide (LPS, 1 μg/mL final; Sigma L-2630, from E. coli serotype 0111.B4; stored as 1 mg/mL stock in endotoxin screened diluted H2O vehicle at −80° C.). Blanks (unstimulated) receive H2O vehicle; final incubation volume is 250 μL. Incubation (4 hours) proceeds as described above. Assay is to be terminated by centrifuging plates 5 minutes at room temperature, 1600 rpm […]; supernatants are then transferred to clean 96 well plates and stored at −80° C. until analyzed for human TNF-α by a commercially available ELISA kit (Biosource #KHC3015, Camarillo, Calif.). The calculated IC50 value is the concentration of the test compound that caused a 50% decrease in the maximal TNF-α production.", "units": {"IC50": "µM"}, "values": [
      {"smiles": "CCOc1ccc(N(C(=O)NCc2ccccc2Cl)c2ccnc(N[C@@H](C)COC)n2)cc1", "note": "[1-(4-Ethoxyphenyl)-1-{2-[(1S)-2-methoxy-1-methyl-ethylamino]-pyrimidin-4-yl}-3-(2-chlorobenzyl)-urea]", "IC50": 0.056},
      {"smiles": "O=C(NCc1ccccc1Cl)N(c1ccc(F)cc1)c1ccnc(NC2CCOCC2)n1", "note": "[1-(4-Fluorophenyl)-1-[2-(tetrahydropyran-4-ylamino)-pyrimidin-4-yl]-3-(2-chlorobenzyl)-urea]", "IC50": 0.016},
      {"smiles": "C[C@H](Nc1nccc(N(C(=O)NCc2ccccc2Cl)c2ccc(F)cc2)n1)C(C)(C)O", "note": "[1-(4-Fluorophenyl)-1-{2-[(1S)-2-hydroxy-1,2-dimethyl-propylamino]-pyrimidin-4-yl}-3-(2-chlorobenzyl)-urea]", "IC50": 0.014},
      {"smiles": "COc1ccc(N(C(=O)NCc2ccccc2Cl)c2ccnc(N[C@@H](C)C(C)(C)O)n2)cc1", "note": "[1-(4-Methoxyphenyl)-1-{2-[(1S)-2-hydroxy-1,2-dimethyl-propylamino]-pyrimidin-4-yl}-3-(2-chlorobenzyl)-urea]", "IC50": 0.009},
      {"smiles": "COc1ccc(N(C(=O)NCc2ccccc2F)c2ccnc(N[C@@H](C)C(C)(C)O)n2)cc1", "note": "[1-(4-Methoxyphenyl)-1-{2-[(1S)-2-hydroxy-1,2-dimethyl-propylamino]-pyrimidin-4-yl}-3-(2-fluorobenzyl)-urea]", "IC50": 0.013},
      {"smiles": "COc1ccc(N(C(=O)NCc2ccccc2OC)c2ccnc(N[C@@H](C)C(C)(C)O)n2)cc1", "note": "[1-(4-Methoxyphenyl)-1-{2-[(1S)-2-hydroxy-1,2-dimethyl-propylamino]-pyrimidin-4-yl}-3-(2-methoxybenzyl)-urea]", "IC50": 0.015},
      {"smiles": "COc1ccc(N(C(=O)NCc2ccccc2C)c2ccnc(N[C@@H](C)C(C)(C)O)n2)cc1", "note": "[1-(4-Methoxyphenyl)-1-{2-[(1S)-2-hydroxy-1,2-dimethyl-propylamino]-pyrimidin-4-yl}-3-(2-methylbenzyl)-urea]", "IC50": 0.037}
    ]}
  ]
}
